# According to BigSolDB 2.1:
smiles,measurement,setting,value
NC(N)=S,solubility (mole fraction),"in ethanol, 283.15 K",0.0185
same,solubility (mole fraction),"in ethanol, 288.15 K",0.0206
same,solubility (mole fraction),"in ethanol, 293.15 K",0.0222
same,solubility (mole fraction),"in ethanol, 298.15 K",0.025
same,solubility (mole fraction),"in ethanol, 303.15 K",0.027
same,solubility (mole fraction),"in ethanol, 308.15 K",0.0315
same,solubility (mole fraction),"in ethanol, 313.15 K",0.0348
same,solubility (mole fraction),"in methanol, 283.15 K",0.0421
same,solubility (mole fraction),"in methanol, 288.15 K",0.046
same,solubility (mole fraction),"in methanol, 293.15 K",0.0501
same,solubility (mole fraction),"in methanol, 298.15 K",0.054
same,solubility (mole fraction),"in methanol, 303.15 K",0.061
same,solubility (mole fraction),"in methanol, 308.15 K",0.065
same,solubility (mole fraction),"in methanol, 313.15 K",0.0744
same,solubility (mole fraction),"in n-propanol, 283.15 K",0.0185
same,solubility (mole fraction),"in n-propanol, 288.15 K",0.0206
same,solubility (mole fraction),"in n-propanol, 293.15 K",0.0222
same,solubility (mole fraction),"in n-propanol, 298.15 K",0.025
same,solubility (mole fraction),"in n-propanol, 303.15 K",0.027
same,solubility (mole fraction),"in n-propanol, 308.15 K",0.0315
same,solubility (mole fraction),"in n-propanol, 313.15 K",0.0348
